In US20220170028A1, “NOVEL INTERLEUKIN-2 VARIANTS AND BIFUNCTIONAL FUSION MOLECULES THEREOF” (Cugene Inc, priority 2019, published 2022):
“Also recorded” adds a separate entry of the source.

Columns and labels:
[1] = tested on: KLH-induced DTH in Balb/C mice; experiment: KLH-induced delayed-type hypersensitivity (DTH) mouse model, ear thickness; type: in vivo; conditions: 72 hours after KLH challenge, 4 consecutive daily dosing at 5 mg/kg i.p.
Protocol: The ability of Treg cells induced by IL-2 variants to suppress T cell antigen-driven inflammation in vivo was assessed in a model of delayed-type hypersensitivity (DTH). Female Balb/C mice (7-week old) were acclimated in house for 7 days and randomized into groups. Subcutaneous administration of vehicle (PBS), P-0511 at either 0.1 mg/kg or 0.3 mg/kg was initiated on day −2 and was given either once every 3 days (Q3D) for three injections or once every 5 days (Q5D) for two injections. Mice were then sensitized with a subcutaneous administration of 100 μg keyhole limpet hemocyanin (KLH) in 200 μl saline on day 0. For Q3D dosing, two more subcutaneous injections of PBS or P-0511 (0.1 or 0.3 mg/kg) were administered on days 1, and 4; for Q5D dosing, one additional s.c. injection of PBS, 0.1 or 0.3 mg/kg P-0511 was administered on day 3. Mice received an intradermal challenge of KLH (5 μg in 10 μl saline) in right ear on day 5. Right ear thickness was measured using a caliper on day 5 prior KLH challenge and daily from day 6 to day 9 corresponding to 24 h, 48 h, 72 h and 96 h post KLH challenge. One group of mice also received 5 mg/kg daily i.p. treatment of dexamethasone from day 5 to day 8 as a positive control.
Kinetics of the DTH response using the change in ear thickness relative to baseline values (Δ ear thickness) at various times after KLH challenge was illustrated in FIG. 23.

Treg cells [2] = experiment: Treg proliferation and expansion in mice after a single subcutaneous injection (Example 9); type: in vivo, mouse; conditions: 0.3 mg/kg single s.c., C57/BL6 mice; for stimulation of Treg cell proliferation and expansion in vivo (in words): days 3, 5, 7
Protocol: (§1) IL-2 variant Fc fusion proteins were administered to mice and their ability to preferentially proliferate and expand regulatory T cells (CD4+CD25+FoxP3+ T cells) over effector T cells and NK cells were determined in vivo.
(§2) Female C57/BL6 mice (7-week old) were received from Charles River Laboratory and acclimated in house for at least 7 days before the study. Vehicle (PBS), 0.3 mg/kg of each test compounds, or IL-2 benchmark compounds were subcutaneously administered to mice on day 0. Peripheral blood samples were collected into heparin-treated tubes on days 3, 5 and 7 post-treatment. Each group contained 6 mice and baseline blood was collected 2 days prior to the treatment (day −2). After red blood cell lysis, total viable mononuclear blood cells were counted by trypan blue dead cell exclusion method and proceeded to intracellular staining for immune cell phenotype and Ki67 proliferation markers using flow cytometric analysis. Cells were stained separately with two panels of antibodies as listed: 1) anti-mouse Foxp3-FITC, Ki67-PE, anti-mouse CD25-APC and anti-mouse CD4-Percpcy5.5 (1:50 dilution) for CD4+T-regulatory cells (Treg); 2) anti-mouse CD3-FITC, Ki67-PE, anti-mouse CD335-APC and anti-mouse CD8-Percpcy5.5 (1:50 dilution) for CD8+T and NK cells.

[3] = tested on: CD4+ Tconv cells, CD8 T cells and NK cells; experiment: Effector T cell and NK cell proliferation and expansion in mice after a single subcutaneous injection (Example 9); type: in vivo, mouse; conditions: 0.3 mg/kg single s.c., C57/BL6 mice
Protocol: as §1, §2

[4] = Aggregate content by size-exclusion chromatography after Protein A purification; type: physicochemical; conditions: for Aggregation % (SEC): after MabSelectSure
Protocol: For affinity chromatography each supernatant was loaded on a HiTrap MabSelectSure column (CV=5 mL, GE Healthcare) equilibrated with 25 ml phosphate buffered saline, pH 7.2 (ThermoFisher). Unbound protein was removed by washing with 5 column volumes PBS, pH 7.2 and target protein was eluted with 25 mM sodium citrate, 25 mM sodium chloride, pH 3.2. Protein solution was neutralized by adding 3% of 1 M Tris pH 10.2. Ion exchange chromatography or mix-mode chromatography, including but not limited to CaptoMMC (GE Healthcare), ceramic hydroxyapatite, or ceramic fluoroapatite (Bio-Rad) was also utilized to polish the Protein A material as needed. Target protein was concentrated with an Amicon®Ultra-15 concentrator 10 KDa NMWC (Merck Millipore Ltd.)
The purity and molecular weight of the purified constructs were analyzed by SDS-PAGE with and in the absence of a reducing agent and staining with Coomassie (Imperial® Stain). The NuPAGE® Pre-Cast gel system (4-12% or 8-16% Bis-Tris, ThermoFisher) was used according to the manufacturer's instructions. The protein concentration of purified protein samples was determined by measuring the UV absorbance at 280 nm (Nanodrop Spectrophotometer, ThermoFisher) divided by the molar extinction coefficient calculated on the basis of the amino acid sequence. The aggregate content of the constructs was analyzed on an Agilent 1200 high-performance liquid chromatography (HPLC) system. Samples were injected onto an AdvanceBio size-exclusion column (300 Å, 4.6×150 mm, 2.7 μm, LC column, Agilent) using 150 mM sodium phosphate, pH 7.0 as the mobile phase at 25° C.
(§3) S125I substitution was thus introduced into a number of IL-2 variant Fc fusion molecules. The constructs harboring Ile-125 substitution in IL-2 were expressed using the same vector and in the same culturing conditions as their Ser-125 counterparts and purified using MabSelectSure. The expression level in mg/L and purity assessed by SEC chromatography in aggregation % of exemplary molecules are summarized in Table 6. The two molecules in the same row of Table 6 share the same other amino acid substitution(s) and differ only at residue 125 with either serine or isoleucine. As an example, the SEC chromatogram and SDS-PAGE pictures of P-0447 (SEQ ID NO: 173) and its Ile-125 counterpart P-0511 (SEQ ID NO: 213) were further illustrated in FIGS. 1D and 1E.

[5] = Transient expression level of IL-2 Fc fusion constructs in HEK-293F cells
Protocol: The constructs were produced by co-transfecting HEK293-F cells growing in suspension with the mammalian expression vectors using polyethylenimine (PEI, 25,000 MW linear, Polysciences). If there were two or more expression vectors, the vectors were transfected in a 1:1 ratio. For transfection, HEK293 cells were cultivated in serum free FreeStyle™ 293 Expression Medium (ThermoFisher). For production in 1000 ml shaking flasks (working volume 330 mL), HEK293 cells were seeded at a density of 0.8×10^6 cells/ml 24 hours before transfection. A total of 330 μg of DNA expression vectors were mixed with 16.7 ml Opti-mem Medium (ThermoFisher). After addition of 0.33 mg PEI diluted in 16.7 ml Opti-mem Medium, the mixture was vortexed for 15 sec and subsequently incubated for 10 min at room temperature. The DNA/PEI solution was then added to the cells and incubated at 37° C. in an incubator with 8% CO2. Sodium butyrate (Millipore Sigma) was added to the cells at day 4 at a final concentration of […] to help sustain protein expression. After 6 days cultivation, supernatant was collected for purification by centrifugation for 20 min at 2200 rpm. The solution was sterile filtered (0.22 μm filter, Corning). The secreted protein was purified from cell culture supernatants using Protein A affinity chromatography.
as §3

[6] = tested on: STAT5 phosphorylation in CD4+ Treg cells; experiment: STAT5 phosphorylation in CD4+ Treg cells, human PBMC assay by FACS; type: cell-based
Source text: (§4) Single amino acid substitutions were introduced to IL-2 at positions corresponding to amino acids interacting with receptor subunit(s) β or γ or βγ. These substitutions were aimed to reduce IL-2 signaling capacity through the intermediate affinity IL-2Rβγ complex and confer signaling specificity from the high affinity IL-2Rαβγ. IL-2 variants containing single amino acid substitutions were examined for their ability to differentially stimulate STAT5 phosphorylation in CD4 positive Treg and Tconv cells. STAT5 is known to be involved in the downstream signaling cascade upon IL-2 binding to the transmembrane IL-2 receptors. The phosphorylation of STAT5 in defined lymphocyte subpopulations was measured using fresh human peripheral blood mononuclear cells (PBMC) and the forkhead transcription factor FOXP3 was used to identify the Treg population in FACS analysis.
(§5) Briefly, human PBMC were isolated by Ficoll-Hypaque centrifugation from the buffy coat of a healthy donor. PBMC were starved in serum-free MACS buffer at 4° C. for 1 hour. 2×10^5 PBMC were then treated with serial dilutions of test compounds for 30 min at 37° C. Cells were fixed and permeabilized with Foxp3/Transcription Factor Staining Buffer Set (EBIO) by incubating with 1× Foxp3 fixation/permeabilization working solution for 30 minutes and washing with 1× permeabilization buffer. Cells were additionally fixed with Cytofix buffer and permeabilized with Perm Buffer III (BD Biosciences) and then washed. After blocking Fc receptors by adding human TruStain FcX (1:50 dilution), cells were stained with a mixture of anti-CD25-PE, anti-FOXP3-APC, anti-pSTAT5-FITC, and anti-CD4-PerCP-Cy5.5 antibodies at concentrations recommended by the manufacturer for 45 minutes at room temperature. Cells were collected by centrifugation, washed, resuspended in FACS buffer, and analyzed by flow cytometry. The flow cytometry data was gated into CD4+/Foxp3+/CD25^high and CD4+/Foxp3−/CD25^low groups for the Treg and CD4 conventional T cell subsets, respectively. Data are expressed as a percent of pStat5 positive cells in gated population.

[7] = tested on: STAT5 phosphorylation in CD4+ Tconv cells; experiment: STAT5 phosphorylation in CD4+ Tconv cells, human PBMC assay by FACS; type: cell-based
Source text: as §4, §5

[8] = tested on: CD4+ Treg vs CD4+ Tconv cells; experiment: STAT5 phosphorylation, selectivity / activity profile Treg versus CD4+ Tconv cells, human PBMC; type: cell-based
Source text: as §4, §5
The S125I substitution was then introduced into wild-type IL-2 or IL-2 variants that already harbored 1 or 2 mutations targeting receptor subunit(s) β or γ or βγ. The resulting IL-2 variants containing isoleucine at position 125 were tested for their ability to stimulate STAT5 phosphorylation in Treg and Tconv cells in comparison with their respective serine counterparts at position 125. Table 7 lists the potency and selectivity of IL-2 variants in Treg cells. The two molecules in the same row of Table 7 share the same other amino acid substitution(s) and differ only at position 125 with either serine or isoleucine.

Treg cells [9] = experiment: Treg pharmacodynamics in mice after repeated administration Q3D (Example 11); type: in vivo, mouse; conditions: after three consecutive Q3D treatments, 0.3 mg/kg s.c.
Protocol: Female Balb/C mice (7-week old) were acclimated in house for 5-7 days before the study. Vehicle (PBS), 0.3 mg/kg of P-0511, P-0512, P-0531, or Benchmark-1 compound were subcutaneously administered to mice (n=5/group) on days 0, 3, and 6. On days 3 and 9, three days after the first injection and multiple (3) injections, respectively, peripheral blood was collected. Based on earlier in vivo experiments, Treg cell activation, proliferation, and expansion were expected to peak on day 3, and thus three days post injection was selected for data collection and analysis. Changes in blood lymphocyte activation, proliferation, and expansion were measured by flow cytometry. P-0531 is the S125I equivalent of the wild type IL-2 fusion protein. The Benchmark-1 contains V91K mutation.

Compound | stimulation of Treg cell proliferation and expansion in vivo (in words) (Treg cells [2]) | STAT5 phosphorylation activity in Treg cells (in words) [6] | STAT5 phosphorylation activity in CD4+ Tconv cells (in words) [7] | activity profile / selectivity window Treg over CD4+ Tconv (in words) [8] | Aggregation % (SEC) ([4]; Isoleucine-125 constructs) [%] | Expression ([5]; Isoleucine-125 constructs) [mg/L] | Treg Selectivity ([8]; Isoleucine-125 constructs) | other results
C[C@@H]1C[C@H]2[C@@H]3CCC4=CC(=O)C=C[C@]4(C)[C@@]3(F)[C@@H](O)C[C@]2(C)[C@@]1(O)C(=O)CO [dexamethasone, reference compound] | – | – | – | – | – | – | – | inhibition of KLH-induced inflammatory response [1]: ~85%
Benchmark-3: benchmark Fc-IL-2 variant fusion protein containing N88D, SEQ ID NO: 199 [reference compound] | not efficacious | – | – | – | – | – | – | Ki67 stimulation on CD8 T cells and NK cells in vivo (in words) [3]: low effects
P-0447: IL-2 L19H/Q126E Fc fusion, SEQ ID NO: 173 | – | robust biological activity; also recorded: significant potency | nearly completely abolished; also recorded: largely abolished | on par with Benchmark-2 | – | – | – | Aggregation % (SEC) ([4]; Serine-125 constructs): 23.7%; Expression ([5]; Serine-125 constructs): 7.3 mg/L; Treg Selectivity ([8]; Serine-125 constructs): Yes
P-0471: IL-2 L19Y/S125I Fc fusion, SEQ ID NO: 183 | – | retained comparable potency | varied significantly | – | 1.0 | 19.3 | Yes | aggregates / high-molecular weight species (SEC) ([4]; Example 4): 1%; expression level (titer) ([5]; transiently in HEK-293F cells, Example 4): 19.3 mg/L
P-0514: IL-2 L19Q/S125I/Q126E Fc fusion, SEQ ID NO: 216 | stronger in vivo efficacy | – | – | – | – | – | – | Treg/Tconv ratio (Ki67 stimulation and cell counts) (Treg cells [2]; all measured time points): most beneficial Treg/Tconv ratio; expansion of CD4+ Tconv cells, CD8 T cells or NK cells in vivo [3]: No significant expansion
P-0531: IL-2 S125I Fc fusion, S125I equivalent of wild type, SEQ ID NO: 167 | – | slightly increased potency | – | without altering Treg selectivity | 0.7 | 29.5 | Yes | % Treg over total CD4 T cells or over total lymphocytes (Treg cells [9]): declined drastically to near control levels
